This is an account of results in patent publication US20080161294A1, “Urea derivative, medicinal composition containing the same, and medicinal use of these” (priority 2005, published 2008).

One may read the EC50 as the concentration that produces a half-maximal response. The Ki is the dissociation constant of the complex between target and ligand, obtained from inhibition or displacement.

Series [1] has as its target T1, human V2 receptor (Homo sapiens, UniProt P30518). As to the kind of experiment: Study to confirm the agonism of human V2 receptor (intracellular Ca2+, HEK293 cells coexpressing human V2 receptor and Gqs chimeric protein). The conditions noted are these: for EC50: intracellular Ca2+ response, HEK293 cells coexpressing human V2 receptor and Gqs; for I A (intrinsic activity): maximum response relative to AVP = 1.00. Also on record: expressed in transfected cells; host or cells: HEK293 cells (American Type Culture Collection), transient transfection with pCI-neo/hV2 and pLEC-Gqs5. Format: cell-based. On the procedure:
The Study to Confirm the Agonism of Human V2 Receptor
The experiment to confirm the response of the test compounds to human V2 receptor was carried out using the cells prepared as described below in order to use this confirmation study to see the agonism of human V2 receptor of the test compounds.
The test compounds were dissolved in dimethylsulfoxide at 10 mM and solutions of the test compounds were prepared by 10-fold serial dilution with the Assay buffer (0.1% BSA, 20 mM HEPES/Hank's balanced salt solution, pH 7.4) at the concentration of 0.1 nM to 10 μM, which were used in this study.
Human V2 receptor couples with Gs protein, one of the G-coupling protein, and consequently produces cyclic adenosine 3′, 5′-monophosphate (cAMP) via adenylate cyclase. This cAMP produce can be substituted to intracellular increase of Ca^2+ with coexpressing Gqs, a chimeric protein, and human V2 receptor (Mol. Pharmacol., Vol. 50, pp. 885-890, 1996). The responses of the test compounds for human V2 receptor were quantified by measuring this intracellular Ca^2+. The changes of intracellular Ca^2+ after adding the test compounds at each concentration as mentioned above (0.1 nM to 10 μM) were measured with a FlexStation (Molecular Devices) using a FLIPR CALCIUM ASSAY KIT (Molecular Devices).
The intrinsic activities (IA) of the test compounds were calculated from the maximum response of the test compounds as that of AVP was considered to be 1.00. In case of a full agonist, the EC50 values of the test compounds were calculated as the maximum response of AVP was considered to be 100% and in the case of a partial agonist, EC50 values of test compounds were calculated as the maximum response of own test compounds were considered to be 100%. The concentration that achieved to 50% response of the maximum response in a concentration-response curve was considered as EC50 value. The values of EC50 obtained in this study were shown in Table 84 described below as indications of the agonism of human V2 receptor.
The Preparation of the Cells Using Confirmation Study of an Agonism of Human V2 Receptor (HEK293 Cells Coexpressed Human V2 Teceptor and Gqs Chimeric Protein)
HEK293 cells (American Type Culture Collection) were incubated in the Eagle's Minimum Essential Medium (EMEM, Invitrogen) containing 1 mM sodium pyruvate, nonessential amino acids (0.1 mM), streptomycin (100 μg/mL), penicillin (100 U/mL), 10% fetal calf serum (Sanko chemicals) in an incubator with 5% CO2 at 37° C. The transfection was carried out by adding pCI-neo hV2 expression vector, expression vector inserted with the sequence coding Gqs chimeric protein (pLEC-Gqs5, LiveWare, Molecular Devices) and Lipofectamine2000 (Invitrogen), all diluted with OPTI-MEM I Reduced Serum Medium I (Invitrogen), to the cell suspension which was prepared from the confluent cells suspended with EMEM as mentioned above without antibiotics at 1×10^6 cells/mL. After the transfection, the cells (HEK293 cells coexpressed human V2 receptor and Gqs chimeric protein) were incubated in an incubator with 5% CO2 for two days and were used as cells for confirming agonism of human V2 receptor, and used for assessment of the test compounds. The expression plasmid vector of human V2 receptor represented as pCI-neo/hV2 above was constructed by the method as described below.

Series [2] deals with Male SD rats. As to the kind of experiment: Acute toxicity test. Type of series: in vivo. The conditions noted are these: 10 mg/kg intravenously, N=2, one hour experimental period, urethane anesthesia. The procedure:
Male SD rats (250-300 g weight) were divided into some groups (N=2) and each cannula was inserted into trachea and jugular vein under anesthesia with urethane (1.5 g/kg, subcutaneously). The test compound solutions were prepared with an adequate solvent to be a dosage of 10 mg/kg, and then the solution was administered intravenously via cannula. The survival rate was determined for an hour experimental period.

Series [3] deals with anesthetized rats infused with hypotonic solution. As to the kind of experiment: Antidiuretic effect on diuresis induced by hypotonic solution in anesthetized rats. Format: in vivo, rat. Conditions: 10 μg/kg intravenously; for Antidiuretic effect (decreasing rate of urine volume): anesthetized male SD rats, against pre value; for Duration tine: period until decreasing rate of urine volume restored to −20%. On the procedure: The Study of Antidiuretic Effect
The Confirmation Study of Antidiuretic Effect on the Diuretic Activity Induced by Loading Hypotonic Solution in the Anesthetized Rats Infused with Hypotonic Solution
It has been reported that plasma AVP level was decreased with intravenous infusion of hypotonic solution (J. Endocrinol., Vol. 141, pp. 59-67, 1994). The antidiuretic effect of the test compounds in the rats induced a diuretic condition was determined by the method as reported by Angchanpen et al (Br. J. Pharmacol., Vol. 93, pp. 151-155, 1988). The test compounds were dissolved in dimethylsulfoxide at 10 mM, and used in the study. Male SD rats (200-400 g weight) were anesthetized with 100 mg/kg of Inactin (SIGMA) intraperitonealy and each cannula was inserted into trachea, jugular vein, bladder and femoral vein, respectively. The hypotonic solution (0.3% NaCl, 0.83% glucose) was infused via femoral vein at 9 mL/hour. The urine volume obtained via cannula inserted into bladder was measured every 10 minutes. After steady-state of urine volume for three 10 minutes periods, test compounds prepared as mentioned above were administered intravenously at 10 μg/kg via cannula inserted into jugular vein. Dimethylsulfoxide/saline (0.3%) was used as a vehicle. The average of urine volume measured for three 10 minutes periods before the administration was defined as the pre value (0%). After the administration of the test compounds, the urine volume was measured every 10 minutes. The antidiuretic effect, namely the decrease of the urine volume, induced by administration of test compounds was calculated from the decreasing rate of urine volume (minus %) against the pre value. Because maximum decreasing rate of the urine volume after administration of vehicle was −20% in this study, the period that decreasing rate of urine volume restored to −20% after administration of the test compounds was considered as indication of duration time of the test compounds.

Series [4] concerns the target T1, human V2 receptor. As to the kind of experiment: Binding experiment for human V2 receptor ([3H]-AVP displacement, CHO cell membranes). The conditions noted are these: inhibition of [3H]-AVP binding, CHO cell membranes expressing human V2 receptor; Ki calculated from IC50 and Kd; read-out: Affinity to human V2 receptor Ki. Also on record: purchased Packard BioScience; host or cells: CHO cell membranes. On the procedure:
Binding Experiment for Human V2 Receptor
Test compounds were dissolved in dimethylsulfoxide at 10 mM. The affinities for human V2 receptor were determined by an inhibition against [^3H]-Arginie vasopressin (AVP) (Perkin elmer Japan) binding to the human V2 receptor using CHO cell membranes expressed human V2 receptor (Packard BioScience). Cell membranes suspension was prepared by suspending the cell membranes as mentioned above with Assay buffer (50 mM Tris-HCl, 10 mM MgCl2, 0.1% bovine serum albumin (BSA), pH7.4) at an adequate protein concentration. The test compound solutions were prepared by diluting the dimethylsulfoxide solution of the test compound as mentioned above with Assay buffer at final concentration of 10 nM, 100 nM, 1 μM and 10 μM (in this diluting procedure, concentration of dimethylsulfoxide was adjusted to be 0.5% at each concentration of the test compound). Cell membranes suspension (50 μL), 3 nM of [^3H]-AVP (50 μL), Assay buffer (50 μL) and the solution of the test compounds at each concentrations (50 μL) were added to MultiScreen 96-well plate (Millipore) and the mixture was incubated for an hour at 25° C. with shaking slightly. After filtration by aspiration, the plate was washed with ice-cold washing buffer (50 mM Tris-HCl, 10 mM MgCl2, pH 7.4) for three times. After dry the plate, Microscinti-20 (Packard) was added to each well and the plate was shaken slightly, and then radioactivities of each well were counted with a micro plate scintillation counter, TopCount (Packard). Non-specific binding of [^3H]-AVP for cell membranes was determined by adding 1 μM of cold AVP substituted for the test compounds. The concentration of the test compounds inhibiting the specific binding of [^3H]-AVP by 50% was considered as IC50 value.
The Calculation of Kd Value of [^3H]-AVP for the Cell Membranes Expressed Human V2 Receptor
The suspension of the cell membranes expressed human V2 receptor was prepared with diluting adequately with the Assay buffer as mentioned above. In consideration for the radioactivity of [^3H]-AVP, six different concentrations (final concentration; ranging from approximately 100 pM to 6000 pM) of [^3H]-AVP were prepared by serial dilution by from 2 to 3 fold with the Assay buffer. The cell membranes suspension (50 μL), each concentrations of [^3H]-AVP (50 μL), the Assay buffer (50 μL) and 1 μM of cold AVP or the Assay buffer (50 μL) were added to MultiScreen 96-well plate (Millipore) and the mixture was incubated for an hour at 25° C. with shaking slightly. The specific bindings (B value) of each concentrations of the [^3H]-AVP were determined by the method as mentioned above and free-bound contents (F value) at each concentrations of the [^3H]-AVP were determined. The Kd value was calculated by Scatchard analysis using the B value and the F value.

T1 sequence (P30518 whole entry): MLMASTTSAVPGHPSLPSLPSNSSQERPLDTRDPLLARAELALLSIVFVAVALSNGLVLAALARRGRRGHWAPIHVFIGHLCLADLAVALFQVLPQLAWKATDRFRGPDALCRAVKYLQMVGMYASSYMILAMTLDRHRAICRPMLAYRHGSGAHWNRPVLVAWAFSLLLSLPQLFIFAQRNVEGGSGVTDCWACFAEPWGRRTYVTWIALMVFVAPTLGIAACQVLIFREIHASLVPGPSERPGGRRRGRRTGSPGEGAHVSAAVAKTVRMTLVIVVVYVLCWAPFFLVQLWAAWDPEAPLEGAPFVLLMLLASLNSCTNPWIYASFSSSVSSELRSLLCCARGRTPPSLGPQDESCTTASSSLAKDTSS

Take `C[C@@H]1CN(C(=O)c2ccc(-n3cccn3)cc2F)c2ccccc2CN1C(=O)NCC(N)=O` [Example 5-15]: in series [1], the EC50 amounted to 9.1 nM and the “I A (intrinsic activity)” value was found to be 0.71.

For `C[C@@H]1CN(C(=O)c2ccc(-n3cccn3)cc2C(F)(F)F)c2ccccc2CN1C(=O)NCC(N)=O` [Example 5-11], in series [1], the response was half-maximal at 8.6 nM (EC50) and the “I A (intrinsic activity)” value was 0.75.

Regarding `C[C@@H]1CN(C(=O)c2ccc(-n3cccn3)cc2Cl)c2ccccc2CN1C(=O)NCC(N)=O` [Example 5-2], the Dead in series [2] was 0/2. In series [3], the “Antidiuretic effect (decreasing rate of urine volume)” value is on record as −83.9% and the Duration tine turned out to be 50 min. In series [1], the concentration for a half-maximal effect (EC50) amounted to 7.3 nM and the “I A (intrinsic activity)” value is recorded as 0.71. In addition, in series [4], the Ki was 35.5 nM.

For `C[C@@H]1CN(C(=O)c2ccc(-n3cccn3)cc2Cl)c2ccccc2CN1C(=O)NCC(=O)O` [Example 3-1, {[(R)-1-(2-Chloro-4-pyrazol-1-ylbenzoyl)-3-methyl-1,2,3,5-tetrahydrobenzo[e]-1,4-diazepin-4-carbonyl]amino}acetic acid], in series [3], the “Antidiuretic effect (decreasing rate of urine volume)” value is recorded as −88.7% and the Duration tine is listed as 60 min. In series [1], the EC50 was determined as 9.4 nM and the “I A (intrinsic activity)” value is recorded as 0.59. In series [4], the Ki is 19.7 nM.

Turning to `Cc1cc(-n2cccn2)ccc1C(=O)N1C[C@@H](C)N(C(=O)NCC(N)=O)Cc2ccccc21` [Example 5-12], in series [1], the concentration giving a half-maximal response (EC50) was 6.5 nM and the “I A (intrinsic activity)” value amounted to 0.79.

Regarding `C[C@@H]1CN(C(=O)c2ccc(N3CCCC3)cc2Cl)c2ccccc2CN1C(=O)NCC(N)=O` [Example 5-18], in series [1], the EC50 came out at 2.2 nM and the “I A (intrinsic activity)” value is reported as 0.89. Moreover, the Ki in series [4] is 27.8 nM.

`C[C@@H]1CN(C(=O)c2ccc(-n3cccn3)cc2Cl)c2ccc(F)cc2CN1C(=O)NCC(N)=O` [Example 5-19]: in series [1], the midpoint of the response, the EC50, lay at 15.6 nM and the “I A (intrinsic activity)” value came to 0.57.

For the compound `C[C@@H]1CN(C(=O)c2ccc(-n3cccn3)cc2Cl)c2ccccc2CN1C(=O)NCC(=O)N(C)C` [Example 5-4], the Dead in series [2] is recorded as 0/2. Besides, in series [3], the “Antidiuretic effect (decreasing rate of urine volume)” value was −90.4% and the Duration tine was determined as 80 min. Further, in series [1], the EC50 turned out to be 27.6 nM and the “I A (intrinsic activity)” value came out at 0.49.

Consider `C[C@@H]1CN(C(=O)c2ccc(-n3cccn3)cc2Cl)c2ccccc2CN1C(=O)NCC(=O)N1CCCC1` [Example 5-5], for which, in series [2], the Dead is on record as 0/2. In addition, in series [3], the “Antidiuretic effect (decreasing rate of urine volume)” value was −89.4% and the Duration tine is given as 90 min. Further, in series [1], the EC50 came out at 24.9 nM and the “I A (intrinsic activity)” value is on record as 0.83.

Consider `C[C@@H]1CN(C(=O)c2ccc(-n3cccn3)cc2Cl)c2ccccc2CN1C(=O)NCC(=O)N1CCCCC1` [Example 5-6], for which, in series [1], the response was half-maximal at 17.3 nM (EC50) and the “I A (intrinsic activity)” value is 0.92.

As to `CNC(=O)CNC(=O)N1Cc2ccccc2N(C(=O)c2ccc(-n3cccn3)cc2Cl)C[C@H]1C` [Example 5-3], in series [1], it took 9.1 nM to reach a half-maximal effect (EC50) and the “I A (intrinsic activity)” value was 0.48. Moreover, in series [4], the Ki was 14 nM.

With `C[C@@H]1CN(C(=O)c2ccc(-n3cccn3)cc2Cl)c2ccccc2CN1C(=O)NCCO` [Example 4, N-(2-Hydroxyethyl)-(R)-1-(2-chloro-4-pyrazol-1-ylbenzoyl)-3-methyl-1,2,3,5-tetrahydrobenzo[e]-1,4-diazepin-4-carboxamide], in series [1], the midpoint of the response, the EC50, lay at 16 nM and the “I A (intrinsic activity)” value worked out at 0.75. In addition, in series [4], the Ki is 61.9 nM.

`C[C@@H]1CN(C(=O)c2ccc(OCCO)cc2Cl)c2ccccc2CN1C(=O)NCC(=O)O` [Example 3-6]: in series [1], a half-maximal effect (EC50) was put at 15.4 nM and the “I A (intrinsic activity)” value amounted to 0.93.
